Among the test systems are CCRF-CEM leukemia; EKVX NSCLC; KM12 colon; OVCAR-3 ovarian; SK-MEL-2 melanoma.
What all share (test): growth of human tumour cells (NCI), 48 h

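Compound exposure: 48 hours, 5 concentrations, 96-well plates. TGI: concentration producing complete growth inhibition.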 Bounds are passed on as bounds.

As to `O=C(O)CCC(N=NNc1ccc(-c2nc3ccccc3[nH]2)cc1)C(=O)O` (centres undefined), the TGI in the assay on CCRF-CEM leukemia, in the assay on EKVX NSCLC, with KM12 colon, with OVCAR-3 ovarian and in the assay with SK-MEL-2 melanoma was greater than 100 µM in each case.

For the compound `CSc1nc(C)c(CCOC(C)=O)c(Cl)n1`, the TGI in the assay with CCRF-CEM leukemia, with EKVX NSCLC, in the assay on KM12 colon and with OVCAR-3 ovarian was greater than 100 µM in each case.

`COc1cc2c(cc1OC)C(=O)C1(C2)[C@H](c2ccccc2)C2C(=O)c3cc(OC)c(OC)cc3C2[C@H]1c1ccccc1` (some centres undefined): the TGI with CCRF-CEM leukemia, in the assay with EKVX NSCLC, with KM12 colon and with OVCAR-3 ovarian was greater than 100 µM in each case.

As to `Nc1ccc(C23CC4CC(C2)CC(c2ccc(N)cc2)(C4)C3)cc1`, the TGI in the assay on CCRF-CEM leukemia was 29.7 µM; in the assay on EKVX NSCLC, 81.6 µM; in the assay with KM12 colon, greater than 100 µM; in the assay with OVCAR-3 ovarian it was greater than 100 µM; in the assay on SK-MEL-2 melanoma it was greater than 100 µM.

On to `O=c1[nH]nc(-c2ccccc2)n1/N=C/c1ccccc1Cl`, for which the TGI with CCRF-CEM leukemia was greater than 100 µM; in the assay on EKVX NSCLC, greater than 100 µM; in the assay on KM12 colon, 32.6 µM; in the assay on OVCAR-3 ovarian, 57.9 µM; in the assay with SK-MEL-2 melanoma it was 46.3 µM.

For `Oc1cc(N2CCCC2)ccc1/C=N/N1C(=S)N(c2ccccc2)C(=Nc2ccccc2)C1=Nc1ccccc1`, the TGI in the assay on EKVX NSCLC, in the assay with KM12 colon, with OVCAR-3 ovarian and with SK-MEL-2 melanoma was greater than 100 µM in each case.

On to `CC(=O)c1ccc2c(c1)CC1(C2)Cc2ccc3c(c2C1=O)CCC3` (centres undefined), for which the TGI with CCRF-CEM leukemia is greater than 100 µM; with KM12 colon, greater than 100 µM; with OVCAR-3 ovarian, greater than 100 µM; in the assay with SK-MEL-2 melanoma it was 35.5 µM.

On to `CC(=O)OC[C@@]12Cc3ccc(C)c(O)c3[C@]1(C)[C@@H](OC(C)=O)[C@]1(O)[C@H]([C@@H](OC(=O)c3ccccc3)[C@@H](C)[C@H]1OC(C)=O)[C@H]2OC(C)=O`, for which the TGI in the assay with CCRF-CEM leukemia, in the assay with EKVX NSCLC, in the assay on KM12 colon, with OVCAR-3 ovarian and with SK-MEL-2 melanoma was greater than 50 µM throughout.

As to `COc1cc2c(cc1O)C1(Cc3ccc4c(c3C1=O)OCO4)N(C)CC2` (centres undefined), the TGI in the assay with CCRF-CEM leukemia, with EKVX NSCLC, with KM12 colon, with OVCAR-3 ovarian and with SK-MEL-2 melanoma was greater than 100 µM each time.

With `O=C(CCc1ccccc1)n1cccc1CO`, the TGI in the assay on CCRF-CEM leukemia, in the assay with EKVX NSCLC, in the assay on KM12 colon, in the assay on OVCAR-3 ovarian and in the assay on SK-MEL-2 melanoma was greater than 100 µM throughout.

Turning to `COc1cc(/C=C\c2nnc(/C=C\c3ccc(O)c(OC)c3)s2)ccc1O`, the TGI in the assay with CCRF-CEM leukemia stood at 14.5 µM; with EKVX NSCLC, 18.4 µM; in the assay on KM12 colon, 15.4 µM; in the assay on OVCAR-3 ovarian it was 10.7 µM; in the assay with SK-MEL-2 melanoma, 26 µM.

Turning to `O=c1cc(N=Nc2ccc(Cl)c(Cl)c2)[nH]c(=O)[nH]1`, the TGI in the assay with CCRF-CEM leukemia is 0.495 µM; with EKVX NSCLC, 3.49 µM; with KM12 colon, 6.15 µM; in the assay with OVCAR-3 ovarian it was 5.41 µM; with SK-MEL-2 melanoma it was 12 µM.

`CC(C)(C)OC(=O)NCCCC(=O)NC1(c2cc3ccccc3s2)CCCCC1`: the TGI with CCRF-CEM leukemia was determined as 28.4 µM; with EKVX NSCLC, 35.9 µM; in the assay on KM12 colon it was 38.9 µM; in the assay with OVCAR-3 ovarian, 39.2 µM.

`CCOC(=O)c1c(C)n(C)c2c1cc(O)c1[nH]c3c(c12)CCCC3`: the TGI in the assay on CCRF-CEM leukemia turned out to be 43.6 µM; in the assay with EKVX NSCLC, 45.1 µM; in the assay with KM12 colon it was 37.3 µM; in the assay with OVCAR-3 ovarian, 25.1 µM; with SK-MEL-2 melanoma, 37 µM.

In the case of `O=C(O)[C@H](Cc1ccccc1)NCCN1CCC[C@H]1C(=O)O`, the TGI in the assay with KM12 colon, in the assay with OVCAR-3 ovarian and with SK-MEL-2 melanoma was greater than 100 µM each time.

Take `N=CN=CC(=S)O[C@@H]1C(=O)N2CCC[C@@]23CCCC[C@@H]13`: the TGI in the assay on CCRF-CEM leukemia, in the assay on EKVX NSCLC, in the assay on KM12 colon and in the assay with SK-MEL-2 melanoma was greater than 12.5 µM each time.

In the case of `Cn1c2ccccc2c(=O)c2cccc(C(=O)NCC(=O)O)c21`, the TGI with EKVX NSCLC, with KM12 colon, in the assay with OVCAR-3 ovarian and with SK-MEL-2 melanoma was greater than 100 µM throughout.

Regarding `O=S1(=O)OCCOS(=O)(=O)C1Cc1cccc2ccccc12`, the TGI in the assay on CCRF-CEM leukemia is 40.5 µM; in the assay on EKVX NSCLC, 80.3 µM; in the assay on SK-MEL-2 melanoma, greater than 100 µM.

In the case of `CCN(CC)C(=S)SC(C(=O)Nc1nnc(-c2ccccc2)o1)c1ccccc1` (centres undefined), the TGI in the assay with EKVX NSCLC was 49.5 µM; in the assay with KM12 colon it was 62.7 µM; with OVCAR-3 ovarian it was 41.8 µM; with SK-MEL-2 melanoma, 46.7 µM.

Take `CC(=O)OCC1OC(O[C@@H]2C[C@H]3C(C)(C)[C@@H](OC(C)=O)CC[C@]3(C)[C@H]3CC[C@]45C[C@]4(CC[C@H]5[C@@H](C)C[C@@H](O)[C@H](O)C(C)(C)F)[C@@]32C)C(O)C(O)C1O` (some centres undefined): the TGI with CCRF-CEM leukemia was 3.57 µM; in the assay with EKVX NSCLC it was 3.21 µM; in the assay on KM12 colon, greater than 100 µM; in the assay with OVCAR-3 ovarian it was greater than 100 µM.

As to `CCOc1ccccc1-c1nc2c(s1)C(=O)c1ccccc1C2=O`, the TGI turned out to be 41.2 µM with EKVX NSCLC, 29.8 µM in the assay with KM12 colon, 8.01 µM with OVCAR-3 ovarian and 30 µM in the assay with SK-MEL-2 melanoma.

As for `CCN(CCCl)c1cc(CN(C)C)cc(NC(=O)C23CCC(C(=O)Nc4cc(CN(C)C)cc(N(CC)CCCl)c4)(CC2)CC3)c1`, the TGI in the assay with CCRF-CEM leukemia amounted to 1.17 µM; in the assay with KM12 colon it was 3.17 µM; in the assay on SK-MEL-2 melanoma it was 4.35 µM.

Regarding `CC(=O)OCC(C)(COC(C)=O)N1C(=O)C2C3c4ccccc4C(c4ccccc43)C2C1=O` (centres undefined), the TGI in the assay on CCRF-CEM leukemia, with EKVX NSCLC, in the assay with KM12 colon and in the assay on OVCAR-3 ovarian was greater than 100 µM each time.

`O=C1OC(C2(O)OC(=O)c3ccccc32)c2ccccc21` (centres undefined): the TGI in the assay on EKVX NSCLC, in the assay on KM12 colon, in the assay with OVCAR-3 ovarian and in the assay with SK-MEL-2 melanoma was greater than 100 µM in each case.

As for `COc1ccc(N=NC(=Nc2ccc(Cl)cc2)c2ccc(N(CCC#N)CCC#N)cc2)cc1`, the TGI in the assay on EKVX NSCLC was greater than 100 µM; in the assay with KM12 colon, greater than 100 µM; in the assay on OVCAR-3 ovarian, greater than 100 µM; in the assay with SK-MEL-2 melanoma, 14.5 µM.

In the case of `CC1=NN(c2nc(N)nc(C/C(N)=N/O)n2)C(C)(C)C1`, the TGI with CCRF-CEM leukemia, with EKVX NSCLC, in the assay on KM12 colon and with OVCAR-3 ovarian was greater than 100 µM each time.

`CCOC(=O)c1cc(Br)c(-c2cc(C)no2)[nH]1`: the TGI in the assay with EKVX NSCLC was greater than 100 µM; in the assay with KM12 colon it was 24.7 µM; in the assay with OVCAR-3 ovarian, 95.1 µM; in the assay with SK-MEL-2 melanoma it was greater than 100 µM.

These data come from PubChem BioAssay (NCI).
